Laboratory results published in PubChem BioAssay (NCI).
Values joined by “and” are separate entries in the source; they are usually repeats but may differ in a detail not shown here. Equal values may be shown once.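 Step 1: Grow cells in 96-well plates. Step 2: Expose to compound for 48 hours at 5 concentrations. Step 3: Interpolate endpoints linearly; if unreached, use highest concentration. The concentration for 50% growth inhibition is given as GI50. TGI is the concentration that stops growth completely.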

Legend:
Assay in all cases: DTP human tumour cell line panel, 48 h
786-0 renal = test system: 786-0 renal
K-562 leukemia = test system: K-562 leukemia
CAKI-1 renal = test system: CAKI-1 renal
HS 578T breast = test system: HS 578T breast
MOLT-4 leukemia = test system: MOLT-4 leukemia
A498 renal = test system: A498 renal
T-47D breast = test system: T-47D breast
KM12 colon = test system: KM12 colon
MDA-MB-231 breast = test system: MDA-MB-231 breast
ACHN renal = test system: ACHN renal

| SMILES | GI50 (786-0 renal) | TGI (786-0 renal) | GI50 (K-562 leukemia) | TGI (K-562 leukemia) | GI50 (CAKI-1 renal) | TGI (CAKI-1 renal) | GI50 (HS 578T breast) | TGI (HS 578T breast) | GI50 (MOLT-4 leukemia) | TGI (MOLT-4 leukemia) | GI50 (A498 renal) | TGI (A498 renal) | GI50 (T-47D breast) | TGI (T-47D breast) | GI50 (KM12 colon) | TGI (KM12 colon) | GI50 (MDA-MB-231 breast) | TGI (MDA-MB-231 breast) | GI50 (ACHN renal) | TGI (ACHN renal) |
| --- | --- | --- | --- | --- | --- | --- | --- | --- | --- | --- | --- | --- | --- | --- | --- | --- | --- | --- | --- | --- |
| O=c1[nH]cnc2nc(-c3ccc(N(CCCl)CCCl)cc3)[nH]c12 | 18.3 µM | 53.2 µM | 1.9 µM | > 100 µM | 4.25 µM | > 100 µM | 27.2 µM | > 100 µM | > 100 µM | > 100 µM | 22.2 µM | 70.3 µM | 2.85 µM | > 100 µM | 70.3 µM | > 100 µM | 3.23 µM | > 100 µM | 2.58 µM | 33.5 µM |
| N#Cc1ncc(N2C(=O)C3(CCC3)N(c3ccc(OC4CCNCC4)nc3)C2=S)cc1C(F)(F)F | 13.6 µM | 26.8 µM | 5.84 µM | 34.4 µM | 14 µM | 28.9 µM | 15.9 µM | 41.5 µM | 13.1 µM | 42 µM | 12.2 µM | 32.7 µM | 12.2 µM | 49.6 µM | 18.5 µM | 37 µM | 16.4 µM | 33.6 µM | 17.7 µM | 32 µM |
| CC(=O)Nc1cc2cc(NS(=O)(=O)c3cc(C(F)(F)F)cc(C(F)(F)F)c3)ccc2oc1=O |  | > 100 µM |  | > 100 µM |  | > 100 µM |  | > 100 µM |  | > 100 µM |  | > 100 µM |  | > 100 µM |  | > 100 µM |  | > 100 µM |  | > 100 µM |
| Cc1ccc(S(=O)(=O)c2ccsc2N)cc1 | > 100 µM | > 100 µM | > 100 µM | > 100 µM | > 100 µM | > 100 µM | > 100 µM | > 100 µM | > 100 µM | > 100 µM | 40.7 µM | > 100 µM | > 100 µM | > 100 µM | > 100 µM | > 100 µM | > 100 µM | > 100 µM | > 100 µM | > 100 µM |
| Cc1nn2c(/C=C3\C(=O)Nc4ccccc43)c(C)nc2s1 | 40.4 µM | > 100 µM | 6.71 µM | > 100 µM | > 100 µM | > 100 µM | 78 µM | > 100 µM | 17.5 µM | > 100 µM | 31.3 µM | > 100 µM | 32 µM | > 100 µM | 6.4 µM | > 100 µM | > 100 µM | > 100 µM | > 100 µM | > 100 µM |
| CC(C)(O)CCC(O)C(C)(O)C1CCC2(O)C3=CC(=O)C4(O)CC(O)C(O)CC4(C)C3CCC12C (configuration not stated) (tested in a mixture with another compound) |  | > 100 µM |  | > 100 µM |  | > 100 µM |  | > 100 µM |  | > 100 µM |  | > 100 µM |  | > 100 µM |  | > 100 µM |  | > 100 µM |  | > 100 µM |
| C[C@]12CC[C@H]3[C@@H](CCC4=C[C@@H](OC5OCC(OC6OC(CO)C(O)C(O)C6O)C(O)C5O)CC[C@@]43C=O)[C@@]1(O)CCC2C1=CC(=O)OC1 (some centres not stated) |  | 1.23 µM |  | 3.38 µM |  | 1.62 µM |  | > 100 µM |  | 0.346 µM |  | 2.99 µM |  | > 24.8 µM |  | 13.9 µM |  | > 73.7 µM |  | 2.25 µM |
| O=C(O)c1ccc2cccnc2c1O | 2.4 µM | 24.8 µM | 0.896 µM | > 100 µM | 2.16 µM | 13.8 µM | 0.724 µM | > 79.8 µM | 1.82 µM | > 70.3 µM |  | > 92.4 µM | 2.18 µM | 9.9 µM | 2.02 µM | 25 µM |  | > 100 µM | 1.7 µM | 11.3 µM |
| Cc1nc2sc(C(=O)Nc3cccc(Cl)c3C)c(N)c2cc1C(C)O (configuration not stated) | 0.449 µM | > 49.2 µM | 0.0459 µM | > 38.5 µM | 0.334 µM | > 100 µM | 0.182 µM | > 74.9 µM | 0.151 µM | > 42.7 µM | 0.0173 µM | 0.544 µM | 0.443 µM | > 100 µM | 0.175 µM | > 41.1 µM | 0.547 µM | 46.5 µM | 0.63 µM | > 50.1 µM |
| Cn1c(O)c(N=NC(N)=S)c2ccccc21 | 58.7 µM | > 100 µM | 95.2 µM | > 100 µM | 23.6 µM | 91.7 µM | 23.4 µM | > 100 µM | > 100 µM | > 100 µM | 97.7 µM | > 100 µM | 43.9 µM | > 100 µM | 88.3 µM | > 100 µM | > 100 µM | > 100 µM | 51.2 µM | > 100 µM |
| COc1cccc2ccc3c(c12)C(=O)OC31CCc2c(C)cccc21 (configuration not stated) |  | > 46.4 µM |  | 89.5 µM |  | > 46.4 µM |  | > 100 µM |  | 33.7 µM |  | 22.7 µM |  | > 100 µM |  | > 100 µM |  | > 100 µM |  | 40.5 µM |
| Cc1[nH]n(-c2ccccc2)c(=O)c1C(=O)c1ccccc1 | > 25 µM | > 25 µM | > 21.3 µM | > 25 µM | > 25 µM | > 25 µM | > 25 µM | > 25 µM | > 25 µM | > 25 µM | > 6.04 µM | > 25 µM | > 25 µM | > 25 µM | 11.7 µM | > 25 µM | > 25 µM | > 25 µM | > 25 µM | > 25 µM |
| COc1ccc(S(=O)(=O)n2c3ccccc3n3ncc(-c4nnc(C)o4)c23)cc1 | 0.688 µM | > 71.3 µM | 0.314 µM | > 100 µM | 0.449 µM | > 100 µM | 0.394 µM | > 100 µM | 0.502 µM | > 100 µM | 0.298 µM | 1.9 µM | 0.584 µM | 62.4 µM | 0.465 µM | 19.9 µM | 1.86 µM | 39.6 µM | 0.567 µM | > 100 µM |
| N#CC1CCc2c(c(-c3cn[nH]c3C(F)(F)F)nc3c(F)cc4[nH]ncc4c23)C1 (configuration not stated) | 10.9 µM | 59.4 µM | 9.53 µM | > 100 µM | 18.6 µM | > 100 µM | 3.16 µM | 11.5 µM | 3.49 µM | 42.7 µM | 2.09 µM | 6.75 µM | 3.06 µM | 26.1 µM | 3.34 µM | 41.9 µM | 4.96 µM | 38.1 µM | 8.21 µM | 75.1 µM |
| O[C@H](CN1CC1)[C@@H](O)CN1CC1 | 3.42 µM | 13.5 µM | 6.84 µM | > 100 µM | 0.423 µM | 2.85 µM | 20.4 µM | 79.2 µM | 0.86 µM | > 100 µM | 5.24 µM | 21.7 µM | 7.13 µM | 66.6 µM | 11.7 µM | 28.1 µM | 24 µM | 71.6 µM | 0.499 µM | 14.7 µM |
| CN1N=Nc2c(C(F)(F)F)nn(-c3ccccc3)c2N(C)C1=O | > 100 µM | > 100 µM | > 56.4 µM | > 100 µM | > 100 µM | > 100 µM | > 100 µM | > 100 µM |  | > 45.3 µM | > 100 µM | > 100 µM | > 100 µM | > 100 µM | > 100 µM | > 100 µM | > 100 µM | > 100 µM | > 100 µM | > 100 µM |
| CC(C)(F)C[C@H](N[C@@H](c1ccc(-c2ccc(S(C)(=O)=O)cc2)cc1)C(F)(F)F)C(=O)NC1(C#N)CC1 | 9.02 µM and 26.2 µM | 55 µM and 87.8 µM | > 100 µM | > 100 µM | 18.7 µM and 27.4 µM | 55 µM and > 100 µM | 13.6 µM and 21.1 µM | 55 µM and 63.9 µM | > 100 µM | > 100 µM | 33.6 µM and 28 µM | 55 µM and > 100 µM | 35.7 µM and 99.7 µM | 55 µM and > 100 µM | > 100 µM | > 100 µM | 18.6 µM and 34.4 µM | 55 µM and > 100 µM | > 55 µM and 39.5 µM | > 100 µM |
| C=C1C[C@@H]2[C@H](CC[C@]3(C)C(=O)CC[C@@H]23)[C@@]2(C)C=CC(=O)C=C12 | 36.9 µM | > 100 µM | > 59.8 µM | > 100 µM | > 55.9 µM | > 100 µM | 25.1 µM | > 77.2 µM | 25.7 µM | > 92.6 µM | > 50.8 µM | > 90.3 µM | > 51.6 µM | > 100 µM | 30.7 µM | > 70 µM | 35 µM | > 100 µM | 23.5 µM | 54.3 µM |
| N#C/C(=C\c1cccnc1)c1nc2ccccc2o1 | > 100 µM | > 100 µM | > 100 µM | > 100 µM | > 100 µM | > 100 µM | > 100 µM | > 100 µM | > 100 µM | > 100 µM | 66.4 µM | > 100 µM | > 100 µM | > 100 µM | > 100 µM | > 100 µM | > 100 µM | > 100 µM | > 100 µM | > 100 µM |
